Reference: ChEMBL document CHEMBL4028815, “Novel phosphonate analogs of sulforaphane: Synthesis, in vitro and in vivo anticancer activity” (Eur J Med Chem, 2017)

Assays:
LoVo [1] = assay: Potency index, ratio of sulforaphane IC50 to compound IC50 for human LoVo cells; format: functional
LoVo [2] = assay: Potency index, ratio of benzyl isothiocyanate IC50 to compound IC50 for human LoVo cells; format: functional
LoVo [3] = assay: Cytotoxicity against human LoVo cells after 72 hrs by sulforhodamine B assay; format: functional, cell-based
[4] = Cytotoxicity against human LoVo/DX cells after 72 hrs by sulforhodamine B assay; format: functional, cell-based
[5] = Resistance index, ratio of IC50 for human LoVo/DX cells to IC50 for human LoVo cells; format: functional
4T1 [6] = assay: Anti-tumor activity against mouse 4T1 cells implanted in BALB/c mdb mouse assessed as tumor growth inhibition at 100 umol/kg, ip administered five times weekly measured on day 15 post cell innoculum relative to control; format: functional; details: 4T1, ip, 360 h, read-out: TGI
4T1 [7] = assay: Anti-tumor activity against mouse 4T1 cells implanted in BALB/c mdb mouse assessed as tumor growth inhibition at 100 umol/kg, ip administered five times weekly measured on day 29 post cell innoculum relative to control; format: functional; details: 4T1, ip, 696 h, read-out: TGI
Mus musculus [8] = assay: Toxicity in BALB/c mdb mouse implanted with mouse 4T1 cells assessed as body weight loss at 100 umol/kg, ip administered five times weekly measured 3 times weekly during compound dosing; format: organism-based; details: in vivo
Mus musculus [9] = assay: Hepatotoxicity in BALB/c mdb mouse implanted with mouse 4T1 cells assessed as liver weight at 100 umol/kg, ip administered five times weekly measured at 29 day post cell innoculum (reference value: 1.2 +/- 0.13 g); format: toxicity, organism-based; details: in vivo, 696 h
Mus musculus [10] = assay: Nephrotoxicity in BALB/c mdb mouse implanted with mouse 4T1 cells assessed as kidney weight at 100 umol/kg, ip administered five times weekly measured at 29 day post cell innoculum (reference value: 0.136 +/- 0.006 g); format: toxicity, organism-based; details: in vivo, 696 h
Mus musculus [11] = assay: Toxicity in BALB/c mdb mouse implanted with mouse 4T1 cells assessed as spleen weight at 100 umol/kg, ip administered five times weekly measured at 29 day post cell innoculum (reference value: 0.603 +/- 0.133 g); format: organism-based; details: in vivo, 696 h
Mus musculus [12] = assay: Toxicity in BALB/c mdb mouse implanted with mouse 4T1 cells assessed as lung weight at 100 umol/kg, ip administered five times weekly measured at 29 day post cell innoculum (reference value: 0.2 +/- 0.018 g); format: organism-based; details: in vivo, 696 h
4T1 [13] = assay: Anti-tumor activity against mouse 4T1 cells implanted in BALB/c mdb mouse assessed as lung metastasis at 100 umol/kg, ip administered five times weekly measured at 29 days post cell innoculum (reference value: 56 +/- 25); format: functional
Mus musculus [14] = assay: Toxicity in BALB/c mdb mouse implanted with mouse 4T1 cells assessed as WBC level at 100 umol/kg, ip administered five times weekly measured at 29 day post cell innoculum (reference value: 212.3 +/- 82.8 10^3/uL); format: organism-based; details: in vivo, 696 h
Mus musculus [15] = assay: Toxicity in BALB/c mdb mouse implanted with mouse 4T1 cells assessed as RBC level at 100 umol/kg, ip administered five times weekly measured at 29 day post cell innoculum (reference value: 8.6 +/- 0.9 10^6/uL); format: organism-based; details: in vivo, 696 h
Mus musculus [16] = assay: Toxicity in BALB/c mdb mouse implanted with mouse 4T1 cells assessed as hemoglobin level at 100 umol/kg, ip administered five times weekly measured at 29 day post cell innoculum (reference value: 15.1 +/- 1.5 g/dl); format: organism-based; details: in vivo, 696 h
Mus musculus [17] = assay: Toxicity in BALB/c mdb mouse implanted with mouse 4T1 cells assessed as hematocrit at 100 umol/kg, ip administered five times weekly measured at 29 day post cell innoculum (reference value: 39.9 +/- 3.7 %); format: organism-based; details: in vivo, 696 h
Mus musculus [18] = assay: Toxicity in BALB/c mdb mouse implanted with mouse 4T1 cells assessed as serum PLT level at 100 umol/kg, ip administered five times weekly measured at 29 day post cell innoculum (reference value: 972 +/- 157 10^3/uL); format: organism-based; details: in vivo, 696 h
Mus musculus [19] = assay: Toxicity in BALB/c mdb mouse implanted with mouse 4T1 cells assessed as serum ALT level at 100 umol/kg, ip administered five times weekly measured at 29 day post cell innoculum (reference value: 23.8 +/- 2.2 U/L); format: organism-based; details: in vivo, 696 h
Mus musculus [20] = assay: Toxicity in BALB/c mdb mouse implanted with mouse 4T1 cells assessed as serum AST level at 100 umol/kg, ip administered five times weekly measured at 29 day post cell innoculum (reference value: 136 +/- 10.3 U/L); format: organism-based; details: in vivo, 696 h
Mus musculus [21] = assay: Toxicity in BALB/c mdb mouse implanted with mouse 4T1 cells assessed as serum creatinine level at 100 umol/kg, ip administered five times weekly measured at 29 day post cell innoculum (reference value: 9.3 +/- 1.2 umol/L); format: organism-based; details: in vivo, 696 h
Mus musculus [22] = assay: Toxicity in BALB/c mdb mouse implanted with mouse 4T1 cells assessed as serum urea level at 100 umol/kg, ip administered five times weekly measured at 29 day post cell innoculum (reference value: 3.8 +/- […]); format: organism-based; details: in vivo, 696 h
[23] = Resistance index, ratio of IC50 for human MESSA/DX5 cells to IC50 for human MESSA cells; format: functional
MES-SA = assay: Cytotoxicity against human MESSA cells after 72 hrs by sulforhodamine B assay; format: functional, cell-based
MES-SA/Dx5 = assay: Cytotoxicity against human MESSA/DX5 cells after 72 hrs by sulforhodamine B assay; format: functional, cell-based; details: MES-SA/Dx5, 72 h

## CC(C)COP(=O)(CCCCCCN=C=S)OCC(C)C
LoVo [1]
  Ratio IC50: 10
LoVo [2]
  Ratio IC50: 5
LoVo [3]
  IC50: 2.7 µM
[4]
  IC50: 9.2 µM
[5]
  Ratio IC50: 3.4
4T1 [6]
  inhibition in vivo at 100 µmol/kg: 31%
4T1 [7]
  inhibition in vivo at 100 µmol/kg: 14.3%
Mus musculus [8]
  Activity: <= 10%
Mus musculus [9]
  Activity: 1.25 g
Mus musculus [10]
  Activity: 0.127 g
Mus musculus [11]
  Activity: 0.578 g
Mus musculus [12]
  Activity: 0.199 g
4T1 [13]
  Activity: 58
Mus musculus [14]
  Activity: 311.2 ×10³ /uL
Mus musculus [15]
  Activity: 10.8 ×10⁶ /uL
Mus musculus [16]
  Activity: 19.2 g/dL
Mus musculus [17]
  Activity: 53%
Mus musculus [18]
  Activity: 831 ×10³ /uL
Mus musculus [19]
  Activity: 33.1 U/L
Mus musculus [20]
  Activity: 153.6 U/L
Mus musculus [21]
  Activity: 8.2 µmol/L
Mus musculus [22]
  Activity: 5.2 mmol/L

## COc1cccc2c1C(=O)c1c(O)c3c(c(O)c1C2=O)C[C@@](O)(C(=O)CO)C[C@@H]3O[C@H]1C[C@H](N)[C@H](O)[C@H](C)O1 [DOXORUBICIN]
[23]
  Ratio IC50: 100
LoVo [3]
  IC50: 0.3 µM
[4]
  IC50: 12.2 µM
MES-SA
  IC50: 0.1 µM
MES-SA/Dx5
  IC50: 13.9 µM
